Laboratory results published in patent US6472526B1, “Imidazole derivatives having an inhibitory activity for farnesyl transferase and process for preparation thereof” (LG Chemical Ltd., priority 1997, dated 2002).

What was measured:
Ras farnesyl transferase [1] = target: T1, Ras farnesyl transferase (Rattus norvegicus, UniProt Q02293+Q04631); experiment: In vivo (cellular) inhibitory activity for Ras farnesyl transferase, Rat2 cell line which expresses C-Harvey-Ras protein; format: cell-based
T1 construct: endogenous in cells; host or cells: Rat2 fibroblasts transformed with H-Ras or with an H-Ras/K-Ras C-terminus fusion
Method: (§1) In the present experiment, Rat2 cell line which expresses C-Harvey-Ras protein having transforming activity and Rat2 cell line (Korean patent application No. 97-14409) which is transformed with fused protein of H-Ras substituted with polybasic lysine domain at C-terminus of K-Ras were used. The experiment was performed by the modified Declue's method (Declue. J. E. et al., Cancer Research, 1991, 51, 712). Hereinafter, the experimental method will be described in more detail.
(§2) 3×10^5 cells of transformed Rat2 fibroblast cell line were sprayed on 60 mm cell cultivation dish and cultivated for 48 hours in a cell incubator at 37° C. and after 50% or more of density was reached, it was treated with the test compounds. The compound according to the present invention dissolved in dimethylsulfoxide (DMSO) was used. 1% concentration of dimethylsulfoxide was used in both control and test groups. After 4 hours from the treatment with the compound, methionine labeled with 150 μCi of radioactive isotope [^35S] per 1 ml of medium was added and after cultivating for 20 hours, the cells were, washed with physiological saline water. The cells were lysed using 1 ml of cold cell lysis buffer solution (50 mM of Sodium HEPES buffer solution containing 5mM of magnesium chloride, 1 mM of DTT, 1% NP 40, 1 mM of EDTA, 1 mM of PMSF, 2 μM of leupeptin, 2 μM of pepstatin A and 2 μM of antipain) and the supernatant wherein the cells were lysed was obtained by high-velocity centrifugation of 12,000 g×5 minutes. The amount of radioisotope in the supernatant was measured and standardized to obtain a quantitative result in immunoprecipitation reaction and then, Y13-259, a monoclonal antibody specifically binding to Ras protein (Furth, M. E. et al., J. Virol, 1982, 43, 294) was added and reacted for 15 hours at 4° C. Protein A(combined with goat anti-murine immunoglobulin antibody)-agarose suspension was added to the solution and reacted for 1 hour at 4° C. and then, to remove the unspecific binding product, immunoprecipitates were washed with a buffer solution (50 mM Tris chloride buffer solution containing 50 mM of sodium chloride, 0.5% of sodium dioxycolate, 0.5% of NP 40 and 0.1% of SDS). The precipitates were added to a buffer solution for electrophoresis and boiled and then, electrophoresis was performed using 13.5% of SDS polyacrylamide gel. After electrophoresis, the gel was fixed and dried. Then, the gel was exposed to X-ray film, developed printed. From the result of the experiment, intensities of band of in combined with or without farnesyl of Ras protein were measured, the concentration of the test compound inhibiting 50% of farnesyl bonding was defined as […], an in vivo Ras farnesyl transferase inhibitory activity.

Ras farnesyl transferase [2] = target: T2, Ras farnesyl transferase (Homo sapiens, UniProt P49354+P49356); experiment: In vitro inhibitory activity for Ras farnesyl transferase, H-Ras substrate; format: biochemical
T2 construct: made in house
Method: In the present experiment, Ras farnesyl transferase produced by genetic recombination techniques according to the improved Pompliano's method (Pompliano et al., Biochemistry, 1992, 31, 3800) was used, and Ras substrate (Ras-CVLS) protein described in Korean Patent Appln. No. 97-14409 was used after it has been purified according to the known method (see, Chung et al., Biochimica et Biophysica Acta, 1992, 278, 1129).
The enzyme reaction was performed in 50 μl of 50 mM Sodium HEPES buffer solution containing 25 mM of potassium chloride, 25 mM of magnesium chloride, 10 mM of DTT and 50 μM of zinc chloride. 1.5 μM of Ras substrate protein, 0.15 μM of tritium-farnesylpyrophosphate and 4.5 nM of farnesyl transferase were used.
More specifically, in the initial step, farnesyl transferase was added to the above buffer solution, reaction was maintained for 30 minutes at 37° C. and then the reaction was stopped by adding 1 ml of ethanol solution containing 1M HCl. The formed precipitates were adsorbed to GF/B filter using Hopper harvestor(Hopper #FH 225V) for filter-binding, washed with ethanol, and then radioactivity of the dried filter was measured using LKB β counter. Enzyme titer was measured in the unsaturated state of substrate where the concentrations of Ras substrate protein and farnesyl transferase have quantitative relationship. The compound according to the present invention dissolved in dimethyl sulfoxide (DMSO) was added to the reaction solution in an amount of less than 5% of the total reaction solution, and then the enzyme inhibitory activity thereof was measured. The enzyme inhibitory activity was represented by percentage of the amount of farnesyl incorporated into the Ras substrate protein in the presence of the test compound to that in the absence of the test compound. IC50 of the test compound was defined as the concentration at which 50% of the enzyme activity was inhibited.

Ras farnesyl transferase [3] = target: T1, Ras farnesyl transferase; experiment: In vivo (cellular) inhibitory activity for Ras farnesyl transferase, Rat2 cell line transformed with fused protein of H-Ras substituted with polybasic lysine domain at C-terminus of K-Ras; format: cell-based
Method: as §1, §2

Ras farnesyl transferase [4] = target: T2, Ras farnesyl transferase; experiment: In vitro inhibitory activity for Ras farnesyl transferase, K-Ras substrate; format: biochemical
[5] = Rat2 cell line expressing C-Harvey-Ras, concentration inhibiting 50% of farnesyl bonding of Ras protein, read-out: H-Ras CIC50
[6] = recombinant farnesyl transferase 4.5 nM, Ras substrate protein 1.5 μM, tritium-farnesylpyrophosphate 0.15 μM, 30 minutes at 37° C., read-out: H-Ras IC50
[7] = Rat2 cell line transformed with H-Ras fused with polybasic lysine domain of K-Ras C-terminus, concentration inhibiting 50% of farnesyl bonding, read-out: K-Ras CIC50
[8] = in vitro farnesyl transferase assay, K-Ras, read-out: K-Ras IC50

Row | Structure (SMILES) | IC50 (Ras farnesyl transferase [1]; [5]) [µM] | IC50 (Ras farnesyl transferase [2]; [6]) [µM] | IC50 (Ras farnesyl transferase [3]; [7]) [µM] | IC50 (Ras farnesyl transferase [4]; [8]) [µM] | IC50 (Ras farnesyl transferase [1]) [µM] | IC50 (Ras farnesyl transferase [2]) [µM] | IC50 (Ras farnesyl transferase [3]) [µM] | IC50 (Ras farnesyl transferase [4]) [µM]
1 | COCCN(C)C(=O)c1cn(Cc2c[nH]cn2)cc1-c1cccc2ccccc12 [Compound 95] | 0.01 to 0.1 | 0.0007 | 10 to 50 | 0.1 to 1 |  |  |  | 
2 | O=C(c1cccc(-c2ccccc2)c1)c1cn(Cc2c[nH]cn2)cc1-c1cccc2ccccc12 [Compound 65] | 1 to 50 | 0.42 | 10 to 100 | 0.1 to 10 |  |  |  | 
3 | COCCN(C)C(=O)c1cn(Cc2cncn2CCc2ccc3ccccc3c2)cc1-c1cccc2ccccc12 [Compound 41, 3-[N-(2-Methoxyethyl)-N-methyl]carbamoyl-4-(naphthalen-1-yl)-1-{1-[2-(naphthalen-2-yl)ethyl]-1H-imidazol-5-yl}methyl-1H-pyrrole] | 0.015 | 0.003 | 10 to 50 | 0.004 |  |  |  | 
4 | O=C(c1ccc(F)cc1)c1cn(Cc2c[nH]cn2)cc1-c1cccc2ccccc12 [Compound 58] | 1 to 50 | 0.025 | 10 to 100 | 0.1 to 10 |  |  |  | 
5 | O=C(c1nc(Cc2cnc[nH]2)oc1-c1cccc2ccccc12)N1CCOCC1 [Compound 143, 2-(1H-Imidazol-5-ylmethyl)-4-(morpholin-4-yl)carbonyl-5-(naphthalen-1-yl)oxazole] | 20 | 1.2 | > 50 | > 50 |  |  |  | 
6 | C[C@@H](c1ccccc1)n1cncc1Cn1cc(C(=O)N2CCN(C)CC2)c(-c2cccc3ccccc23)c1 [Compound 13, 1-[1-((S)-α-Methylbenzyl)-1H-imidazol-5-ylmethyl]-3-(4-methylpiperazin-1-yl)carbonyl-4-(naphthalen-1-yl)-1H-pyrrole] | 0.0125 | 0.00085 | 10 to 50 | 0.005 |  |  |  | 
7 | COCCN(C)C(=O)c1cn(Cc2cncn2C)nc1-c1cccc2ccccc12 [Compound 157, 1-[1-Methyl-1H-imidazol-5-ylmethyl]-4-[N-(2-methoxyethyl)-N-methyl]-carbamoyl-3-(naphthalen-1-yl)-1H-pyrazole] | 0.1 | 0.01 | > 50 | 5 |  |  |  | 
8 | O=C(c1cn(Cc2c[nH]cn2)cc1-c1cccc2ccccc12)c1cccc2ccccc12 [Compound 69] |  |  |  |  | 1 to 50 | 0.55 | 10 to 100 | 0.1 to 10
9 | CN1CCN(C(=O)c2cn(Cc3cncn3Cc3ccc(Cl)cc3)cc2-c2cccc3ccccc23)CC1 [Compound 126, 1-[1-(4-Chlorobenzyl)-1H-imidazol-5-yl]methyl-3-[4-methylpiperazin-1-yl]carbonyl-4-(naphthalen-1-yl)-1H-pyrrole] | 0.012 | 0.001 | 5 | 0.004 |  |  |  | 
10 | O=C(c1ccc(Oc2ccccc2)cc1)c1cn(Cc2c[nH]cn2)cc1-c1cccc2ccccc12 [Compound 67] | 3 | 0.02 | > 50 | 0.1 to 10 |  |  |  | 
11 | COC(=O)c1sc(Cc2cncn2CC2CCN(C(=O)OCc3ccccc3)CC2)nc1-c1cccc2ccccc12 [Compound 150] | > 50 | 8 | > 50 | > 50 |  |  |  | 
12 | COCCN(C)C(=O)c1cn(Cc2cncn2Cc2ccc(Cl)cc2)nc1-c1cccc2ccccc12 [Compound 155, 1-[1-(4-Chlorobenzyl)-1H-imidazol-5-ylmethyl]-4-[N-(2-methoxyethyl)-N-methyl]-carbamoyl-3-(naphthalen-1-yl)-1H-pyrazole] | 0.1 | 0.02 | 15 | 0.2 |  |  |  | 
13 | CSCC[C@H](NC(=O)c1cn(Cc2c[nH]cn2)cc1-c1cccc2ccccc12)C(=O)O [Compound 81, (S)-3-[N-(1-Hydroxycarbonyl-3-methylthio)propyl]carbamoyl-1-(1H-imidazol-4-yl)methyl-4-(naphthalen-1-yl)-1H-pyrrole] | 1 to 50 | 0.68 | 10 to 100 | 0.1 to 10 |  |  |  | 
14 | O=C(c1cn(Cc2c[nH]cn2)cc1-c1cccc2ccccc12)N1CCS(=O)(=O)CC1 [Compound 87] | 1 to 50 | 0.06 | 10 to 100 | 0.1 to 10 |  |  |  | 
15 | COCCN(C)C(=O)c1cn(Cc2cncn2CCc2cccc(Cl)c2)cc1-c1cccc2ccccc12 [Compound 25, 1-[1-(3-Chloro)phenethyl-1H-imidazol-5-yl]methyl-3-[N-(2-methoxyethyl)-N-methyl]carbamoyl-4-(naphthalen-1-yl)-1H-pyrrole] | 0.015 | 0.002 | 10 to 50 | 0.005 |  |  |  | 
16 | O=C(c1ccc(Cl)cc1Cl)c1cn(Cc2c[nH]cn2)cc1-c1cccc2ccccc12 [Compound 57] | 1 to 50 | 0.038 | 10 to 100 | 0.1 to 10 |  |  |  | 
17 | COCCN(C)C(=O)c1cn(Cc2cncn2CCc2ccccc2)cc1-c1cccc2ccccc12 [Compound 14, 3-[N-(2-Methoxyethyl)-N-methyl]carbamoyl-4-(naphthalen-1-yl)-1-[1-(phenethyl)-1H-imidazol-5-ylmethyl]-1H-pyrrole] | 0.0125 | 0.002 | 10 to 50 | 0.005 |  |  |  | 
18 | Cn1cncc1Cn1cc(C(=O)N2CCOCC2)c(-c2cccc3ccccc23)c1 [Compound 99, 1-(1-Methyl-1H-imidazol-5-yl)methyl-3-(morpholin-4-yl)carbonyl(naphthalen-1-yl)-1H-pyrrole] | 0.1 |  | > 50 |  |  |  |  | 
19 | N#Cc1ccc(Cn2cncc2Cn2cc(C(=O)c3ccc(Br)cc3)c(-c3cccc4ccccc34)c2)cc1 [Compound 77] | 0.1 | 0.004 |  | 0.12 |  |  |  | 
20 | COCCN(C)C(=O)c1nc(Cc2cncn2Cc2ccc(Cl)cc2)sc1-c1cccc2ccccc12 [Compound 147, 2-[1-(4-Chlorobenzyl)-1H-imidazol-5-ylmethyl]-4-[N-(2-methoxy)ethyl-N-methylcarbamoyl]-5-(naphthalen-1-yl)thiazole] | 0.05 | 0.002 |  | 0.03 |  |  |  | 
21 | N#Cc1ccc(Cn2cncc2Cn2cc(C(=O)c3ccccc3)c(-c3cccc4ccccc34)c2)cc1 [Compound 75] | 0.2 | 0.005 |  | 0.16 |  |  |  | 
22 | COCCN(C)C(=O)c1cn(Cc2cncn2Cc2ccc(Br)cc2)nc1-c1cccc2ccccc12 [Compound 154, 1-[1-(4-Bromobenzyl)-1H-imidazol-5-ylmethyl]-4-[N-(2-methoxyethyl)-N-methyl]-carbamoyl-3-(naphthalen-1-yl)-1H-pyrazole] | 0.15 | 0.03 |  | 0.2 |  |  |  | 
